Here are results for six compounds from patent publication EP4166560A1, “TRI-SUBSTITUTED TETRAHYDROFURANS AND USE THEREOF” (Consejo Superior de Investigaciones Cientificas, priority 2021, dated 2023).

The EC50 is the concentration giving half of the maximal effect. By CC50 is commonly meant the concentration giving 50% cytotoxicity. Low values mean harm at low concentration, high ones better tolerance by the cells.

Data set [1] deals with TGEV. Kind of data set: Quantitation of TGEV-induced cell death in ST cells by real-time automated microscopy (Cytotox). The data set is classed as cell-based, transmissible gastroenteritis virus (TGEV). As to conditions: for EC50: read-out: EC50 on TGEV-induced cell death; for activity against TGEV (reversion of TGEV-induced cell death): MOI 0.01, 48 h, result in words; for bottom plateau, dead cells: TGEV MOI 0.01, 48 h, dose-response fit.

In data set [2] the test system is SARS-CoV-2. The following applies: White et al. 2021; result in words; cited from earlier work.
Data set [3] relates to TGEV. Kind of data set: TGEV viral titration by plaque assay in ST cells. Format: cell-based, transmissible gastroenteritis virus (TGEV). The method, then:
ST cells were inoculated with TGEV at a MOI of 0.01 infectious particles per cell and, after 24 h of incubation under standard culture conditions, the culture medium was subjected to the plaque assay, which determines the number of viral infectious particles present per volume unit (viral titer). A range of SPL-0 concentrations was tested in order to obtain a dose-response curve. The TGEV titer in the harvested medium decreased as the SPL-0 dose increased (Figure 6).

The test system of data set [4] is TGEV. Kind of data set: TGEV RNA quantitation by RT-qPCR in ST cells. Format: cell-based, transmissible gastroenteritis virus (TGEV). On the procedure:
ST cells were inoculated with TGEV at a MOI of 0.01 infectious particles per cell and, after 24 h of incubation under standard culture conditions, total RNA was extracted and TGEV RNA was quantified by RT-qPCR. A range of SPL-0 concentrations was tested in order to obtain a dose-response curve. The amount of TGEV RNA decreased as the SPL-0 dose increased (Figure 7).

Data set [5] deals with MHV. Kind of data set: MHV RNA quantitation by RT-qPCR in CCL9.1 cells. Format: cell-based, murine hepatitis virus (MHV). (In general: Quantitative PCR measures a nucleic acid by following its amplification.)
For data set [6], the system named is OC43. Kind of data set: OC43 RNA quantitation by RT-qPCR in BHK-21 cells. The data set is classed as cell-based, human coronavirus OC43.
Data set [7] relates to SARS-CoV-2. Kind of data set: SARS-CoV-2 infection quantified by immunofluorescence (flow cytometry) in VeroE6 cells. The data set is classed as cell-based. The method, then: (§1) To determine the activity of SPL-0 against SARS-CoV-2, a dose-response assay was performed in the range of 0.2 µM to 50 µM using VeroE6 kidney cells from African green monkey (Cercopithecus aethiops). Cell cultures were inoculated with SARS-CoV-2 at an MOI of 0.01 infectious particles per cell and analyzed after 48 h. The percentage of infected cells was obtained by flow cytometry using a monoclonal antibody against the virus spike protein S as well as a fluorescently labelled secondary antibody (immunofluorescence). The percentage of infected cells decreased as the SPL-0 increased (Figure 8a). […] In addition, for each dose, cell viability assays were performed in the absence of virus. For this, the MTT assay, a standard procedure for determining cell metabolic activity, was used.
(Flow cytometry measures light scatter and fluorescence of single cells or particles in a stream.)

Data set [8] has as its system SARS-CoV-2. Kind of data set: SARS-CoV-2 infection quantified by immunofluorescence (flow cytometry) in A549 cells. The data set is classed as cell-based. The method, then:
as §1, with “The” for “To determine the”, “SARS-CoV-2 was determined in A549 human lung cells, which provide a biologically relevant model, since that lungs are a primary target of SARS-CoV-2. For this,” for “SARS-CoV-2,”, “µM.” for “µM using VeroE6 kidney cells from African green monkey (Cercopithecus aethiops).”, “72” for “48”, “9a).” for “8a).”, “assay” for “assay, a standard procedure for determining cell metabolic activity,”

Data set [9] concerns CVB3. Kind of data set: CVB3 viral titration by plaque assay in HeLa cells. The data set is classed as cell-based, coxsackievirus B3 (CVB3). On the procedure: CVB3 belongs to the picornavirus family. […] Coronaviruses and picornaviruses share certain broad features. Both are plus-strand RNA viruses. However, they are otherwise largely unrelated virus groups. The effect of SPL-0 on CVB3 infection was determined in human HeLa cells. HeLa cells were inoculated with CVB3 at a MOI of 0.01 infectious particles per cell and, after 24 h of incubation under standard culture conditions, the medium was subjected to the plaque assay, which determines the number of viral infectious particles present per volume unit (viral titer). A range of SPL-0 concentrations was to obtain a dose-response curve. The CVB3 titer in the harvested medium decreased as the SPL-0 dose increased (Figure 10). […] Therefore, the antiviral action of SPL-0 extends beyond coronaviruses.

The test system of data set [10] is swine testis (ST) cells. As to conditions: dose range 2-100 µM.
Data set [11] concerns VeroE6 kidney cells. As to conditions: MTT, 0.2 µM to 50 µM.
Data set [12] has as its system A549 human lung cells. As to conditions: MTT, 0.2 µM to 50 µM.
A short description of data set [13]: in vitro. The following applies: pig, st cells.
The nature of data set [14]: in vitro. As to conditions: african green monkey, veroe6 cells.
Data set [15] in a line: in vitro. The following applies: human, a549 cells.
Setting [16] is: Alphacoronavirus 1, ST cells, MOI 0.01, 48 h after viral inoculation.
Where [17] appears, read: relative to untreated control, dose-response fit.

Values joined by “and” are separate entries in the source; they are usually repeats but may differ in a detail not shown here. Equal values may be shown once. “Also recorded” adds a separate entry of the source. Numbered stars: 1 amine (or outer) side, 2 acyl side, 3 side chain; on linkers, the order of the positions; unused ones are H or OH. Bridge positions count the residues as written; N and C are the ends. Square brackets hold non-standard residues; d marks the D form. Peptide text beside a SMILES is read from it. * marks the point of attachment. X1 = CC[C@H](C)[C@@H](N[*:1])[C@@H](O)CC(=O)O[C@H](C(=O)[C@H](C)C(=O)[*:2])C(C)C; NMeY = CN[C@@H](Cc1ccc(O)cc1)C(=O)O; dNMeL = CN[C@H](CC(C)C)C(=O)O; Pyruvoyl = CC(=O)C(=O)*

Turning to `CC(C)C[C@H]1C[C@@H]([Si](c2ccccc2)(c2ccccc2)c2ccccc2)[C@H](CCCCl)O1` [SPL-6], in [1] (setting [16]), the EC50 came to 30.5 µM. Besides, in data set [1] (ST cells), the “activity against TGEV (reversion of TGEV-induced cell death)” value (from here on “activity against TGEV”) was “partially reverts TGEV-induced cell death; also recorded: Active” and the “bottom plateau, dead cells” value was 14.8%.

Consider `C[C@@H]1O[C@@H](Cc2ccccc2)CC1[Si](C)(C)C` (some centres unmarked) [SPL-5], for which the “activity against TGEV” value in [1] (ST cells) is reported as “did not revert TGEV-induced cell death; also recorded: Inactive”.

Consider `CC[C@H](C)[C@H]1NC(=O)[C@@H](NC(=O)[C@@H](CC(C)C)N(C)C(=O)[C@@H]2CCCN2C(=O)C(C)=O)[C@@H](C)OC(=O)[C@H](Cc2ccc(OC)cc2)N(C)C(=O)[C@@H]2CCCN2C(=O)[C@H](CC(C)C)NC(=O)[C@@H](C)C(=O)[C@H](C(C)C)OC(=O)C[C@@H]1O` [Aplidin, plitidepsin] (Pyruvoyl-P[dNMeL]T[X1]LP[NMeY](Me); ester 3-C), for which, in [2], the “in vitro activity against SARS-CoV-2” value was “potent in vitro activity”.

`CCCCCCCCCC[C@H]1CC([Si](c2ccccc2)(c2ccccc2)c2ccccc2)[C@H](C)O1` (stereo partly drawn) [SPL-1, 2,5-trans-(5-decyl-2-methyltetrahydrofuran-3-yl)triphenylsilane]: the “activity against TGEV” value in [1] (ST cells) is recorded as “did not revert TGEV-induced cell death; also recorded: Inactive”.

Take `C[C@@H]1O[C@@H](Cc2ccccc2)CC1[Si](c1ccccc1)(c1ccccc1)c1ccccc1` (some centres unmarked) [SPL-0]: the EC50 in data set [1] (Alphacoronavirus 1, 48 h) was 13.1 µM; in [3] (Alphacoronavirus 1, viral titration (plaque assay), ST cells, MOI 0.01, 24 h, read-out: EC50 against TGEV) it was 15.6 µM; in data set [4] (Alphacoronavirus 1, RT-qPCR, ST cells, MOI 0.01, 24 h, read-out: EC50 against TGEV) it was 4.35 µM; in data set [5] (Murine coronavirus, RT-qPCR, inferred from single dose 20 µM, read-out: EC50 against MHV), under 20 µM; in data set [6] (Betacoronavirus 1, OC43, RT-qPCR, inferred from single dose 20 µM, read-out: EC50 against OC43), under 20 µM; in data set [7] (Severe acute respiratory syndrome coronavirus 2, Vero C1008, immunofluorescence, MOI 0.01, 48 h, read-out: EC50 against SARS-CoV-2 in VeroE6 cells) it was 27.5 µM. Besides, the EC50 in data set [8] (Severe acute respiratory syndrome coronavirus 2, A549, immunofluorescence, MOI 0.01, 72 h, read-out: EC50 against SARS-CoV-2 in A549 cells) came to 12.9 µM; in data set [9] (Enterovirus B, CVB3, viral titration (plaque assay), HeLa cells, MOI 0.01, 24 h, read-out: EC50 against CVB3), 2.95 µM. Also, in data set [1] (ST cells), the “activity against TGEV” value is given as “partially reverts TGEV-induced cell death; also recorded: Active”. The “bottom plateau, dead cells” value in [1] (ST cells) is 16.1%. Besides, the “bottom plateau, estimated viral titer” value in [3] (setting [17]) and in data set [9] (setting [17]) was 0% each time. For the same compound, the “bottom plateau, viral RNA” value in data set [4] (setting [17]) was determined as 0%. In data set [5] (20 µM, MOI 0.01, 24 h), the “amount of MHV RNA, % of the amount obtained in control cultures receiving no drug” value was 17.0 ± 2.4%. For the same compound, the “amount of OC43 RNA, % of the amount obtained in control cultures receiving no drug” value in data set [6] (20 µM, MOI 0.01, 4 days) was 4.16 ± 0.95%. In addition, the “bottom plateau, infected cells” value in [7] (VeroE6 cells, dose-response fit) stood at 1.6%. Moreover, the “estimated bottom plateau, infected cells” value in data set [8] (A549 cells, dose-response fit) is on record as -0.37%. Moreover, in data set [10] (ST cell cultures not inoculated with TGEV), the “percentage of dead cells at 48 h” value was < 12% and 2.5-12.0%. Further, the cytotoxic effects result in data set [10] (ST cells, no virus, result in words) was “no detectable cytotoxic effects”; in [11] (VeroE6 cells, result in words), “no cytotoxic effects”; in [12] (A549 cells, result in words), “no cytotoxic effects”. The “percentage of viable cells at 48 h” value in data set [11] (uninfected VeroE6 cells) is > 85% and 85.0-93.3%; in data set [12] (uninfected A549 cells) it was > 89% and 89.0-100%. In addition, the figures for the CC50 at 48 h in [13], in data set [14] and in data set [15] were over 100 µM, over 50 µM and over 50 µM, respectively.

`C[C@H]1OC[C@@H](c2ccccc2)[C@H]1[Si](c1ccccc1)(c1ccccc1)c1ccccc1` [SPL-4]: the EC50 in data set [1] (setting [16]) was found to be 15.8 µM. For the same compound, in data set [1] (ST cells), the “activity against TGEV” value is on record as “partially reverts TGEV-induced cell death; also recorded: Active” and the “bottom plateau, dead cells” value is 11.4%.
